According to ChEMBL document CHEMBL5620438, “Noducyclamides A1-A4, B1, and B2 from the Cyanobacterium Nodularia sp. NIES-3585” (J Nat Prod, 2024):
≈ marks a conversion by molar mass, not a printed value. Calls of active or inactive are those of the source. No cut-off for these calls is given here.

Key:
MCF7 [1] = assay: Cytotoxicity against human MCF7 cells assessed as decrease in cell viability incubated for 72 hrs by MTT assay; format: functional, cell-based; conditions: MCF7, 72 h
MCF7 [2] = assay: Synergistic cytotoxicity against human MCF7 cells assessed as reduction in cell viability incubated for 72 hrs by MTT assay in presence of Noducyclamide B1; format: functional, cell-based

CCCCCCC[C@@H]1CC(=O)N[C@@H](CCC(N)=O)C(=O)N2C[C@H](O)C[C@H]2C(=O)N2CCC[C@H]2C(=O)N[C@@H](Cc2ccc(O)cc2)C(=O)N[C@H](CC(C)C)C(=O)N[C@@H](C(C)C)C(=O)N[C@H](C(C)(C)O)C(=O)N[C@@H](CC(C)C)C(=O)NCC(=O)N1
IC50 (MCF7 [1]): 9.6 µg/mL (≈ 8.22 µM) | Activity (MCF7 [2]): inactive

CCCCCCC[C@@H]1CC(=O)N[C@@H](CCC(N)=O)C(=O)N2C[C@H](O)C[C@H]2C(=O)N2C[C@H](O)C[C@H]2C(=O)N[C@@H](Cc2ccc(O)cc2)C(=O)N[C@H](CC(C)C)C(=O)N[C@@H](C(C)C)C(=O)N[C@H](C(C)(C)O)C(=O)N[C@@H](CC(C)C)C(=O)NCC(=O)N1
IC50 (MCF7 [1]): 18 µg/mL (≈ 15.2 µM) | Activity (MCF7 [2]): inactive

CCCCCCC[C@@H]1CC(=O)N[C@@H](C(C)C)C(=O)N[C@H]([C@@H](O)C(C)C)C(=O)N[C@@H](C)C(=O)N[C@H]([C@@H](O)C(C)C)C(=O)N[C@@H](CCC(N)=O)C(=O)N(C)[C@@H]([C@@H](C)CC)C(=O)N[C@H](CC(N)=O)C(=O)N[C@H]([C@H](C)O)C(=O)N2C[C@H](O)C[C@H]2C(=O)N[C@H](C(C)C)C(=O)N[C@@H]([C@@H](C)O)C(=O)N1
IC50 (MCF7 [1]): 3 µg/mL (≈ 2.17 µM)
